{"source": "paper PMC7358525", "about": "“Characterization of PF-6142, a Novel, Non-Catecholamine Dopamine Receptor D1 Agonist, in Murine and Nonhuman Primate Models of Dopaminergic Activation” (Frontiers in Pharmacology, 2020)", "type_in_all_cases": "in vivo", "key": {"[1]": {"test": "Plasma exposure (PK), NHP", "details": "0.1 mg/kg SC, 0.5 h", "method": "(§1) Across the set of experiments, PK was either collected from satellite animals or in separate, dedicated studies. In addition to plasma PK, exposures were obtained in brain tissue for rat and mouse, and plasma protein binding and brain tissue binding were measured. Using the measured exposures, partitioning, and binding parameters, and the […]"}, "[2]": {"test_system": "ACh levels in the rat PFC", "test": "Prefrontal cortex acetylcholine levels via microdialysis, rat", "text": "Adult male Sprague-Dawley rats (280–360 g) were obtained from Charles-River Laboratories, Raleigh, NC and male C57BL/6J DRD1a WT and D1 DA receptor knockout mice (DRD1a-905781) were obtained from The Jackson Laboratories (Bar Harbor, ME). Animals were housed on a 12-h light/dark cycle with free access to food and water and allowed to acclimate for at least 5 d after arrival. Aseptic technique was used during the surgical procedure in order to prevent infection. On the day of the procedure animals were anesthetized with isoflurane (4%) and their heads shaved. The animals were then placed into a Kopf stereotaxic frame, the surgical area disinfected by swabbing with Provodine solution, and the area isolated with a sterile surgical drape. Anesthesia was maintained with isoflurane (2.5%–3%) delivered through a nose cone using a Univentor 400 anesthesia unit. Animals were given a 0.1 ml subcutaneous (s.c.) injection of Metacam (NSAID, meloxicam, 5 mg/ml, Boehringer Ingelheim) as a post-operative analgesic. Marcaine (bupivacaine, 0.5%, Hospira, Lake Forest, IL), a long acting local anesthetic, was administered s.c. at the surgical area to minimize pain and discomfort. […]\nFor conventional analysis, ACh was analyzed by high performance liquid chromatography (HPLC) utilizing a modification of the BAS ACh-choline assay kit (BAS part # MF-8910). […]"}, "[3]": {"test": "Plasma exposure (PK), rat", "details": "10 mg/kg SC, 1.5 h", "method": "as §1"}, "mouse locomotor activity": {"test_system": "mouse locomotor activity", "test": "Mouse locomotor activity (LMA)", "method": "Locomotor activity data were measured by an automated infrared photo-beam system in sound attenuating chambers controlled by Versamax® software, provided by Accuscan Instruments Inc. (Columbus, Ohio), which quantified beam breaks similar to the methods used previously ([Xu et al., 2000]). To test D1 receptor selectivity in a pharmacologic model, C57BL/6J mice were habituated to the apparatus for 90 min, followed by pretreatment with vehicle or SCH-23390 (0.01, 0.032, 0.1 0.32, s.c.) and returned to the apparatus for 30 min. […] Data were compared against the vehicle group using a repeated measures one-way ANOVA with a Dunnett’s post-test. To test D1 receptor selectivity in a genetic model, DRD1a WT and knockout mice (D1 KO) were habituated to the apparatus for 90 min, pretreated with vehicle or SCH-23390 (0.032 mg/kg, s.c.) and returned to the apparatus for 30 min. […] Data were compared within genotype using a two-way ANOVA with a Dunnett’s post-hoc test versus vehicle treated group."}, "[4]": {"test_system": "mPFC low frequency delta activity", "test": "mPFC low frequency delta field potential oscillation power, anesthetized rat", "method": "Experiments were performed on n=10 adult male Sprague-Dawley rats (275–305 g) under urethane anesthesia (1.5 g/kg, i.p.). The femoral vein was cannulated for i.v. administration of drugs. A stimulation electrode was placed in the CA1/subiculum region (coordinates: A-P = +6.3 mm, M–L = +5.2 mm, D-V = +8.0 mm) using stereotactic methods and unilateral local field potential (LFP) was recorded by a metal monopolar macroelectrode placed into the medial PFC (mPFC; coordinates: A-P = +3.0 mm, M-L = +0.6 mm, D-V = +5.0 mm). […] Evoked responses to the first and the second stimuli were identified (P1 and P2, respectively) and the amount of PPF determined by the formula: (P2 amplitude/P1 amplitude). Waveform averages used to calculate PPF consisted of 60 consecutive stimuli. Five minutes were allowed between administration of each drug dose and the starting of the subsequent average of each 10-min period after each cumulative dose (0.1–1 mg/kg, IV). Disruption in power of LFP delta activity was measured as the percentage of power in low frequency (0–1.8 Hz) irregular activity in the total (0–4 Hz) delta power range. LFP power spectra were determined during periods concurrent with waveform averages and PPF calculation. Statistical significance was determined by means of two-tailed paired Student’s t-test."}}}
{"compound": "Cc1cc(Oc2nccc3occc23)ccc1-c1c(C)ncc2nccn12", "note": "[PF-6142]", "values": [{"measurement": "PF-6142 plasma concentration", "setting": "[1]", "value": 31, "unit": "ng/mL"}, {"measurement": "PF-6142 mediated increase in cortical ACh after repeated dosing (AUC 75-180 min, day 5)", "setting": "[2]; 10 mg/kg SC for five consecutive days", "value": "maintained"}, {"measurement": "cortical ACh levels, time course", "setting": "[2]; PF-6142 10 mg/kg SC acute on day 5 after subchronic vehicle, vs 5 d vehicle", "value": "increased cortical ACh levels"}, {"measurement": "PF-6142 plasma concentration", "setting": "[3]", "value": 1260, "unit": "ng/mL"}, {"measurement": "horizontal activity, five consecutive days of dosing", "setting": "mouse locomotor activity; 1.78 mg/kg daily", "value": "did not significantly increase horizontal activity"}, {"measurement": "horizontal activity, five consecutive days of dosing", "setting": "mouse locomotor activity; 3.2 mg/kg s.c. daily (p=0.0311 day 4, p=0.0309 day 5)", "value": "only increased activity significantly on days 4 and 5"}, {"measurement": "locomotor activity, five consecutive days of dosing", "setting": "mouse locomotor activity; 10 mg/kg s.c. daily, CD-1 mice", "value": "increased locomotor activity"}, {"measurement": "locomotor activity", "setting": "mouse locomotor activity; D1 KO mice, 10 mg/kg s.c. (p=0.6731)", "value": "did not show hyperactivity"}, {"measurement": "locomotor activity", "setting": "mouse locomotor activity; WT mice, 10 mg/kg s.c.", "value": "increased activity in the WT mice"}, {"measurement": "horizontal activity (beam breaks, 2 h)", "setting": "mouse locomotor activity; acute 0.32-10 mg/kg s.c., significant at 10 mg/kg (p<0.0001)", "value": "dose-dependently increased horizontal activity"}, {"measurement": "MK-801-induced increases in low frequency delta", "setting": "[4]; PF-6142 0.1-1 mg/kg IV cumulative", "value": "dose-dependently reversed"}, {"measurement": "MK-801-induced increases in low frequency delta activity after SCH-23390 pretreatment", "setting": "[4]; PF-6142 cumulative IV up to 3 mg/kg (p=0.11)", "value": "no effect"}]}
